{"source": "patent US8354395B2", "about": "“Method for providing neuroprotection from spinal muscular atrophy” (Trophos, priority 2003, dated 2013)", "key": {"[1]": {"test_system": "GABAA receptors", "test": "electrophysiology in vitro with rat neurons (slices of hippocampus on MEA, sensitive neurons in patch clamp)", "type": "cell-based", "settings": "for effect on the stimulating GABAA transmission (postsynaptic field potentials, CA1): slices of hippocampus, 20 μM bicuculline, 50 μM picrotoxin, 1-10 μM diazepam, 10-1000 nM steroids", "method": "Electrophysiological experiments were carried out in vitro with rat neurons (slices of hippocampus, neurons sensitive in culture), as follows:\nThe experiments are carried out with hippocampi removed from rats of the Sprague Dawley strain aged from 10 to 21 days. The animals are sacrificed by decapitation, and their brain is rapidly transferred into ACSF (Artificial Cerebro-Spinal Fluid) without sodium (composition: 2 mM KCl, 1.2 mM NaH2PO4, 2 mM MgCl2, 0.5 mM CaCl2, 26 mM NaHCO3, 11 mM glucose, 250 mM saccharose), maintained at a temperature of 4° C. and carbogen (a 95% O2, 5% CO2 mixture) is bubbled through. The hippocampi are extracted from each cerebral hemisphere then cut up into slices of […] thickness using a “tissue chopper”. The slices are left to rest in ACSF medium (composition: 126 mM NaCl, 2 mM KCl, 1.2 mM NaH2PO4, 2 mM MgCl2, 0.5 mM CaCl2, 26 mM NaHCO3, 11 mM glucose) at ambient temperature, at least one hour before recording. Using a pipette, one slice is then deposited on a multi-electrode recording system (MEA, MultiChannel Systems™, Germany) and positioned so as to cover the […]. In order to avoid any change in position by the perfusion flow, a grid weighted down by a platinum <<U>> is positioned on the slice. The MEA is then rapidly inserted into the recording system and the chamber perfused with ACSF with carbogen bubbled through; the middle of the chamber is connected to earth. The perfused ACSF as well as the MEA are maintained at a temperature of 37° C. One of the 60 electrodes is selected as a stimulation electrode. A biphasic stimulation current with an intensity of 300 μA over 0.1 ms is generated from this electrode at a rate of one stimulation every 30 seconds. The responses produced are seen simultaneously at the level of the 59 other electrodes of the MEA. The axons of the Schaeffer collaterals are stimulated in the CA3. In the CA1 region, 6 to 12 electrodes are selected in order to record the field potentials which correspond to the sum of the variations of the postsynaptic potentials of the neurons situated close to each electrode. The molecules tested are dissolved in the ACSF medium (the final concentration of DMSO is ≦0.1%) and carried over onto the slice by means of the perfusion system.\nThe sensitive rat neurons are cultured for 1 to 2 days and then recorded with the patch clamp technique as described in De Roo M. et al. (Dehydroepiandrosterone potentiates native ionotropic ATP receptors containing the P2X2 subunit in rat sensory neurones, J Physiol, 2003, 552:59-71)."}, "[2]": {"test_system": "striatal neurons expressing truncated mutated huntingtin", "test": "protection of striatal neurons from death induced by overexpression of a mutated form of huntingtin", "type": "cell-based", "settings": "1 μM in 0.5% DMSO; 7 days; compared with medium supplemented with BDNF", "method": "Primary cultures of striatal neurons are prepared as described in the literature (Primary striatal neuronal culture, Mao L. et al., Methods Mol. Med., 2003, 79:379-86). […] A second expression vector containing the DNA coding the green fluorescent protein (GFP) also undergoes electroporation and serves as a reporter gene. The DNA of the plasmid coding the huntingtin was prepared by purification with cesium chloride. The plasmid containing the GFP sequence was prepared on Qiagen columns. The integrity of the DNA sequences is verified by sequencing, transfection and western blotting. The cells which survive the electroporation are inoculated at a density of 4000 cells per well of a 96-well plate. The culture takes place in Neurobasal medium (GIBCO) complimented with pyruvate and B-27 (Beckton Dickinson). The cells are maintained in culture for 7 days without changing the medium.\nThe treatments with the compounds to be tested are carried out just after the inoculation at a final concentration of 1 μM in 0.5% of dimethyl sulphoxide (DMSO). The positive controls are carried out by the addition of BDNF at 5 ng/ml final. The negative controls only receive 0.5% DMSO.\nCell death is evaluated after the 7 days by counting the number of living cells expressing the GFP.\nThe activity of the compounds to be tested was evaluated by their capacity to prevent the death of the striatal neurons cultured in the neurobasal medium compared with the survival of the striatal neurons in medium supplemented with BDNF (Brain-Derived Neurotrophic Factor)."}, "[3]": {"test_system": "rat motor neurons", "test": "in vitro model of trophic deprivation of rat motor neurons (survival, calcein fluorescence)", "type": "cell-based", "settings": "3 days in basal medium, compared with medium supplemented with neurotrophic factors, ratio > 0 = positive effect", "procedure": "The spinal cord of E14 rat embryos is dissected and the ventral part is isolated by trituration after trypsination. […] The cells are centrifuged on a density gradient. The motor neurons are enriched in the fraction of the large cells (the least dense). The cells of this fraction are incubated with an anti-p75 antibody, a surface antigen present on the motor neurons. Secondary antibodies coupled with magnetic balls are added and the mixture of cells is passed through a column in a magnet (Arce et al., 1999). Only the motor neurons are retained: their purity is of the order of 90%.\nThe motor neurons are inoculated at low density in culture wells on a substrate of polyornithine-laminin in a neurobasal medium supplemented according to Raoul et al., 1999, Programmed cell death of embryonic motor neurons triggered through the Fas death receptor. […] Negative controls (absence of trophic factors) and positive controls (in the presence of BDNF (Brain-Derived Neurotrophic Factor) at 1 ng/ml, GDNF (Glial-Derived Neurotrophic Factor) at 1 ng/ml and CNTF (Ciliary Neurotrophic Factor) at 10 ng/ml, marketed by the American company PEPROTECH, Inc. and the Sigma-Aldrich company, are included in each series.\nThe compounds to be tested are added 60 minutes after the inoculation and the cultures are maintained at 37° C. under 5% CO2 for 3 days.\nAfter 3 days, the survival is evaluated by a fluorescence measurement after incubation of the cells in the presence of calcein which becomes fluorescent in the living cells.\nThe activity of the compounds to be tested was evaluated according to their capacity to prevent the death of the motor neurons when they are added to the neurobasal medium compared with the survival of the motor neurons in medium supplemented with neurotrophic factors.\nThis survival rate is expressed by a number, the ratio."}, "[4]": {"test_system": "motor neurons of the nucleus of the facial nerve", "test": "axotomy of the facial nerve in new-born rats, count of motor neurons of the facial nucleus", "type": "in vivo, rat", "settings": "axotomized new-born rats; dose between 3 and 100 mg/kg according to the administration route; compared with the nerve which is not sectioned", "method": "An axotomy of the facial nerve is performed on new-born young rats of 2-3 days old. The animals receive the cholest-4-en-3-one oxime 4 hours before the unilateral section of the nerve then daily for 5 days by sub-cutaneous route. Seven days after the section of the nerve, the animals are anaesthetized, then fixed by intra-cardial perfusion of paraformaldehyde. The brain is then removed and placed in paraffin. The histological analysis of compound sections of 7 μm of the nucleus of the facial nerve, stained with cresyl violet, allows the number of motor neurons of the intact side as well as of the side of the nerve which has been sectioned to be counted (Casanovas et al., Prevention by lamotrigine, MK-801 and N omega-nitro-L-arginine methyl ester of motoneuron cell death after neonatal axotomy, Neuroscience, 1996, 71, 313-325)."}, "[5]": {"test": "toxicological study in mice", "type": "in vivo", "settings": "oral, sub-cutaneous, intra-peritoneal and intravenous routes, up to 300 mg/kg/day, daily up to 28 days"}}}
{"molecule": "CC(C)CCC[C@@H](C)[C@H]1CC[C@H]2[C@@H]3CCC4=CC(=NO)CC[C@]4(C)[C@H]3CC[C@]12C", "note": "[Compound 1, Cholest-4-en-3-one oxime]", "values": [{"measurement": "blocking of the effect of positive allosteric modulators of the GABAA receptors", "setting": "[1]; allopregnanolone or tetrahydrodeoxycorticosterone as modulators, dose-dependent, concentrations equivalent to those with neurotrophic effects in vitro", "value": "capable of blocking"}, {"measurement": "effect on the GABAA receptors, compound alone", "setting": "[1]; tested alone up to 10 μM, slice of hippocampus or sensitive neurons", "value": "no effect"}, {"measurement": "Ratio (survival of striatal neurons)", "setting": "[2]", "value": 0.3}, {"measurement": "Ratio (survival rate of the motor neurons)", "setting": "[3]; 5 μM", "value": 1}, {"measurement": "increase of survival of the motor neurons of the nucleus of the facial nerve", "setting": "[4]", "value": "up to 40%"}, {"measurement": "toxicity", "setting": "[5]", "value": "did not show significant toxicity"}]}
{"molecule": "CC(C)CCC[C@@H](C)[C@H]1CC[C@H]2[C@@H]3CCC4=CC(=NO)C=C[C@]4(C)[C@H]3CC[C@]12C", "note": "[Compound 2, 1,4-cholestadien-3-one oxime]", "values": [{"measurement": "Ratio (survival rate of the motor neurons)", "setting": "[3]; 5 μM", "value": 0.6}]}
{"molecule": "C[C@]12CC[C@@H](O)C[C@@H]1CC[C@@H]1[C@@H]2CC[C@]2(C)[C@@H](C(=O)CO)CC[C@@H]12", "note": "[tetrahydrodeoxycorticosterone]", "values": [{"measurement": "effect on the stimulating GABAA transmission (postsynaptic field potentials, CA1)", "setting": "[1]", "value": "potentialized"}]}
{"molecule": "CN1C(=O)CN=C(c2ccccc2)c2cc(Cl)ccc21", "note": "[diazepam]", "values": [{"measurement": "effect on the stimulating GABAA transmission (postsynaptic field potentials, CA1)", "setting": "[1]", "value": "potentialized"}]}
{"molecule": "CC(C)[C@@H](C)C=C[C@@H](C)[C@H]1CC[C@H]2[C@@H]3C=CC4=CC(=NO)CC[C@]4(C)[C@H]3CC[C@]12C", "note": "[Compound 15, 4.6, 22-ergosta-trien-3-one oxime]", "values": [{"measurement": "Ratio (survival rate of the motor neurons)", "setting": "[3]; 5 μM", "value": 0.2}]}
{"molecule": "CC(C)CC=C[C@@H](C)[C@H]1CC[C@H]2[C@@H]3CCC4=CC(=NO)CC[C@]4(C)[C@H]3CC[C@]12C", "note": "[Compound 7, 4,22-cholestadien-3-one oxime]", "values": [{"measurement": "Ratio (survival rate of the motor neurons)", "setting": "[3]; 6 μM", "value": 0.25}]}
{"molecule": "CC[C@H](CC[C@@H](C)[C@H]1CC[C@H]2[C@@H]3CCC4=CC(=NO)CC[C@]4(C)[C@H]3CC[C@]12C)C(C)C", "note": "[Compound 8, 4-stigmasta-ene-3-one oxime]", "values": [{"measurement": "Ratio (survival rate of the motor neurons)", "setting": "[3]; 10 μM", "value": 0.3}]}
{"molecule": "CC(C)CCC[C@@H](C)[C@H]1CC[C@H]2[C@@H]3C=CC4=CC(=NO)C=C[C@]4(C)[C@H]3CC[C@]12C", "note": "[Compound 17, 1.4,6-cholesta-trien-3-one oxime]", "values": [{"measurement": "Ratio (survival rate of the motor neurons)", "setting": "[3]; 5 μM", "value": 0.3}]}
{"molecule": "CC(C)=CCC[C@@H](C)[C@H]1CC[C@H]2[C@@H]3CCC4=CC(=NO)CC[C@]4(C)[C@H]3CC[C@]12C", "note": "[Compound 6, 4,24-cholestadien-3-one oxime]", "values": [{"measurement": "Ratio (survival rate of the motor neurons)", "setting": "[3]; 5 μM", "value": 0.5}]}
{"molecule": "CC(C)CCC[C@@H](C)[C@H]1CC[C@H]2[C@@H]3CC[C@]4(O)CC(=O)CC[C@]4(C)[C@H]3CC[C@]12C", "note": "[Compound 9, 5-beta-hydroxy-cholestan-3-one]", "values": [{"measurement": "Ratio (survival of striatal neurons)", "setting": "[2]", "value": 0.5}, {"measurement": "Ratio (survival rate of the motor neurons)", "setting": "[3]; 1 μM", "value": 0.5}]}
{"molecule": "CC(=O)[C@H]1CC[C@H]2[C@@H]3CC[C@H]4C[C@H](O)CC[C@]4(C)[C@H]3CC[C@]12C", "note": "[allopregnanolone, 3α-hydroxy-5α-pregnan-20-one]", "values": [{"measurement": "effect on chlorine currents produced by isoguvacine", "setting": "[1]; sensitive neurons, patch-clamp", "value": "potentialized"}, {"measurement": "effect on the stimulating GABAA transmission (postsynaptic field potentials, CA1)", "setting": "[1]", "value": "potentialized"}]}
{"molecule": "CC(C)=CCC[C@@H](C)[C@H]1CC[C@H]2[C@@H]3CCC4=CC(=O)CC[C@]4(C)[C@H]3CC[C@]12C", "note": "[Compound 4, Cholest-4,24-dien-3-one]", "values": [{"measurement": "Ratio (survival of striatal neurons)", "setting": "[2]", "value": 0.2}]}
{"molecule": "picrotoxin", "values": [{"measurement": "effect on the stimulating GABAA transmission (postsynaptic field potentials, CA1)", "setting": "[1]", "value": "blocked"}]}
{"molecule": "CC(C)CCC[C@@H](C)[C@H]1CC[C@H]2[C@@H]3C=C[C@H]4CC(=O)CC[C@]4(C)[C@H]3CC[C@]12C", "note": "[Compound 11, 5-alpha-cholest-6-en-3-one]", "values": [{"measurement": "Ratio (survival of striatal neurons)", "setting": "[2]", "value": 0.3}]}
{"molecule": "CC(C)C(C)C=C[C@@H](C)[C@H]1CC[C@H]2[C@@H]3C=CC4=CC(=O)CC[C@]4(C)[C@H]3CC[C@]12C", "note": "(stereo partly shown) [Compound 12, 24-methylcholest-4,6,22-trien-3-one]", "values": [{"measurement": "Ratio (survival of striatal neurons)", "setting": "[2]", "value": 0.3}]}
